System: recombinant T. vaginalis cysteine synthase (CS)
Assay: coupled assay with MGL1 and LDH, NADH oxidation at […] nm
Assay type: biochemical, Trichomonas vaginalis
Conditions: 200 mM potassium phosphate pH 7.8, 37°C

Structure (SMILES) | Km (SMC synthase reaction, 10 mM OPS) [mM] | Km (cysteine synthase reaction, 3 mM Na2S) [mM]
CS [CH3SNa] | 4.3 ± 1.6 | 
N[C@@H](COP(=O)(O)O)C(=O)O [OPS] |  | 18.2 ± 0.8
